Key:
[1] = Rat pharmacokinetics of OA and OC in plasma and urine after oral OA alone or with CMF1; assay type: in vivo, Sprague-Dawley rats; details: in vivo, po, 30 mg/kg
Method: The study was approved by the Animal Ethics Committee of The Chinese University of Hong Kong. Male Sprague-Dawley rats (230–250 g) were utilized and supplied by the Laboratory Animal Service Center at The Chinese University of Hong Kong. The rats were housed under standard conditions of temperature, humidity, and light and randomly divided into six groups with 10–12 rats in each group. […] The dose of 1.95 g/kg CMF1 is calculated based on the human dose recommended by the Chinese physicians and a doubled dose of CMF1 at […] is also used in the current study due to the potential large dosing range for Chinese medicine adopted in the practice. […]
For dosing, OA (4 mg/mL) was freshly prepared by dissolving it in water and orally given to rats by gavage, bid (twice daily) for 4 days (9:00am and 6:00pm for each day), and CMF1 was also freshly suspended in water and then orally given to rats 2 h later of OA dosing (11:00 am and 8:00 pm for each day).
For Groups of 1 to 3, a surgery for jugular vein cannulation was performed 1 h after CMF1 second dosing on day 4. A polyethylene catheter (0.50 mm ID, 1.00 mm OD, Portex Limited, Hythe, Kent, England) was cannulated into the right jugular vein under anesthesia. After surgery, the rat was placed in separated metabolic cage and allowed to recover and fasted overnight with free access to water. In the morning of day 5, blood samples (0.2 mL each) of the rats in the Groups 1–3 were collected via the catheter at 0, 15, 30, 60, 90, 120, 180, 240, 360, and 480 min after dosing of OA. After which, 0.2 mL of normal saline containing 20 units/mL of heparin was then injected into the catheter to flush the catheter. The collected blood samples were immediately placed in heparinized tubes containing dichlorvos (5 μL of 8 mg/mL dichlorvos in normal saline) for inhibition of carboxylesterase, followed by centrifugation to obtain the plasma and stored at −80°C. Urine samples were collected over 8 h postdose and combined with water used for rinsing the metabolic cage, further diluted to 200 mL, and then stored at −80°C until assay.
The rat/human plasma and urine samples were treated and analyzed by an LC/MS/MS system as previously described. Briefly, 200 μL plasma/urine samples was mixed with cephalexin hydrate (internal standard, IS) working solution (final 2 μg/mL) and acidified with 1 mL of 10% perchloric acid in water (if necessary, dilution with blank human urine was required for urine samples). After mixing and centrifugation, the supernatant was loaded in prewashed Oasis MCX cartridge (1 cc, 30 mg, Waters) and the cartridge was rinsed subsequently with 1% formic acid, water, and methanol followed by vacuum dried for 20 min. The analytes were then eluted with 1 mL of 1% ammonia in methanol. The eluting solvent was dried by a vacuum concentrator and the residue was reconstituted with 200 μL of 0.1% formic acid : methanol (1 : 1 v/v) prior to HPLC/MS/MS analysis using an ABI 2000 Q-Trap triple quadrupole mass spectrometer (Applied Biosystems) coupled with PE-200 series micropumps and autosampler (Perkin-Elmer). The chromatographic separation was achieved by using a Nova-Pak CN HP column (75 × 3.9 mm i.d., 4 μm particle size, Waters) and the HPLC solvent system consisted of methanol (A) and 0.1% formic acid in water (B), with 50% A (for plasma samples) or 60% A (for urine samples) at 1 mL/min. The temperatures of autosampler and the analytical column were set at 4°C and ambient, respectively, and the sample injection volume was 20 μL. Prior to the mass spectrometric system, 60% of the LC eluent was split off and only 40% of the eluent was introduced into the ESI source.
The plasma/urine OA and OC concentrations versus time profiles were analyzed using WinNonlin software standard edition version 2.1 (Pharsight Corporation). […] In human study, trough concentration (C trough) was defined as the minimum concentration obtained and was obtained at 12 h post-dose. […]

[2] = Human crossover pharmacokinetic interaction study of WM (Tamiflu) alone or with CMF1; assay type: in vivo, human (Chinese male healthy volunteers); details: for AUC(0-t): AUC0–12 h; for Cmax: C max
Method: Normal healthy Chinese male subjects aged 20–45 years were recruited in this study. […] The study was conducted using a single-center, randomized, open-labeled, multiple dose (5 days), two-treatment, two-period, two-sequence crossover design. […] Each subject underwent two treatment sessions (periods I and II), and each session consists of 5-day treatment (twice daily for day 1 to day 4, morning dose for day 5). The two treatment sessions were separated by a washout period of 2 weeks. 250 mL water was used for WM (Tamiflu capsule, 75 mg per dose) administration. […] Drinking water was not allowed from 1 h predose to 1 h postdose except that needed for drug dosing. […] All blood and urine collection was taken on day 5 of each treatment session. […] Blood samples were collected from a catheter, which was placed in the forearm vein before dosing. At the specified time, 5 mL of blood was drawn (except for 0 time and at 2 h which was 10 mL each for additional antiviral activity determination) and stored in vacuette lithium heparin tubes (Greiner Bio-One). […] Plasma samples were collected after centrifugation and then stored at −80°C until assay. Urine was also collected (and the volume was recorded) at pre-dose, 0–4, 4–8, and 8–12 h intervals. […] After mixing and centrifugation, the supernatant was loaded in prewashed Oasis MCX cartridge (1 cc, 30 mg, Waters) and the cartridge was rinsed subsequently with 1% formic acid, water, and methanol followed by vacuum dried for 20 min. The analytes were then eluted with 1 mL of 1% ammonia in methanol. The eluting solvent was dried by a vacuum concentrator and the residue was reconstituted with 200 μL of 0.1% formic acid : methanol (1 : 1 v/v) prior to HPLC/MS/MS analysis using an ABI 2000 Q-Trap triple quadrupole mass spectrometer (Applied Biosystems) coupled with PE-200 series micropumps and autosampler (Perkin-Elmer). […] In human study, trough concentration (C trough) was defined as the minimum concentration obtained and was obtained at 12 h post-dose. […] In human studies, the comparison of WM + CMF1 to WM alone treatments was evaluated using a 90% confidence intervals (90% CI) approach (USFDA guideline, Drug Interactions Studies, September 2006). […] The statistical model included terms describing the effects attributable to sequence, subject (nested in sequence), period, and treatment (formulation). […] Difference in the median T max between both treatments was evaluated using Wilcoxon signed-rank test. For comparison of the human antiviral activities, one-way analysis of variance in conjunction with post hoc Turkey's range test was performed.

[3] = male, human, in vivo, geometric mean

In the case of `CCOC(=O)C1=C[C@@H](OC(CC)CC)[C@H](NC(C)=O)[C@@H](N)C1` [OA, Oseltamivir], the “AUC0–8 h” value [1] is reported as 199.85 ± 56.88 μg∗min/mL, the “AUC0–inf” value [1] is reported as 209.14 ± 60.23 μg∗min/mL and the “V d, λz/F” value [1] is reported as 23.39 ± 8.17 (L/k)g. It also gave a Cmax ([1]; male, Sprague-Dawley, C max) of 1160 ± 300 ng/mL, a CL renal ([1]; male, Sprague-Dawley, CL renal) of 6.1 ± 1.32 mL/min and a CL/F ([1]; male, Sprague-Dawley, CL/F) of 158 ± 59.6 mL/min/kg. For the same molecule, the Tmax ([1]; male, Sprague-Dawley, T max) was 0.55 h, the half-life ([1]; male, Sprague-Dawley, t 1/2, λz) was 1.72 ± 0.146 h and the C max ([2]; human, day 5, WM + CMF1, n = 14, arithmetic mean ± SD) was 51.3 ± 17.4 ng/mL. For the same molecule, the tolerability ([2]; in vivo) was “well tolerated”, the “12 h Cum. amt. in urine” value ([2]; male, human, in vivo) was 2883 ± 985 µg and the “12 h Cum. amt. in urine, geometric mean” value ([2]; male, human, in vivo) was 2745.53 µg. The “C max for WM + CMF1 treatment lower than that from WM alone” value ([2]; male, human, in vivo) was 21.81%, the “C max when OA was co-administered with CMF1, relative to WM alone” value ([2]; male, human, in vivo) was ~ 78% and the “time to reach peak maximum in plasma” value ([2]; male, human, in vivo) was 0.5 to 1 h. It also gave an AUC(0-t) ([2]; male, human, in vivo) of 134 ± 41.1 ng·h/mL, an AUC(0-t) [2, 3] of 130 ng·h/mL and a Cmax ([2]; male, human, in vivo) of 67.9 ± 27.1 ng/mL. For the same molecule, the Cmax [2, 3] was 62.4 ng/mL, the CL renal ([2]; male, human, in vivo, Renal clearance) was 368 mL/min and the half-life ([2]; male, human, in vivo, T 1/2 (terminal half-life)) was 1.98 ± 0.4 h. It also gave a Tmax ([2]; male, human, in vivo, T max) of 0.61 ± 0.21 h and a CL renal ([2]; male, human, in vivo, renal clearance) of about 367 mL/min.
